{"source": "patent US20230330243A1", "about": "“COMBINATION OF ANTIBODY-DRUG CONJUGATE AND ATR INHIBITOR” (Daiichi Sankyo Company, Limited, priority 2020, published 2023)", "key": {"MDA-MB-468": {"test_system": "MDA-MB-468", "assay": "Nuclear cell count growth inhibition / synergy and IF biomarkers, 4 to 8 days (Example 4)", "format": "cell-based", "experimental": "(§1) Cells grown in their respective conditions were plated in 96-well plates at optimal density to allow linear proliferation for the duration of the assay (4 to 8 days; duration of treatment is dependent on the growth rate of each cell line). Immediately after plating, the cells were dosed with the indicated compounds for a total volume of 200 µL/well and placed in the incubator. Combinations were conducted as a 6 × 8 concentration response matrix for each combination. At the endpoint, the cells were fixed in 2% PFA for 20 minutes at room temperature. In order to obtain the number of cells at the start of treatment, one additional plate was used for each experiment and fixed after cells attached. The cells were then permeabilised in 0.5% Triton-X100 in PBS for 10 minutes. After a PBS wash, the cells were blocked in 5% FBS in PBS 1h at RT and incubated with primary antibodies in 5% FBS + 0.05% triton overnight at 4° C. After 3 washes in PBS cells were incubated with secondary antibodies in 5% FBS + 0.05% triton with Hoechst33258 for 1h at room temperature. After 3 washes in PBS, the cells were scanned with a Cellinsight instrument with a 10× objective and 9 fields/well. Images were analysed using Columbus for cell count based on nuclear Hoechst staining and nuclear intensity of other biomarkers investigated. The total cell count/well was used to calculate the relative growth in each well compared to solvent control. […] The mean/well of the sum of the nuclear intensity of the IF biomarkers was also expressed relative to solvent control."}, "KPL4": {"test_system": "KPL4", "assay": "Nuclear cell count growth inhibition / synergy and IF biomarkers, 4 to 8 days (Example 4)", "format": "cell-based", "experimental": "as §1"}, "[1]": {"test_system": "ATR pathway in NCI-N87 (gastric cancer) cells", "assay": "Antibody blots of ATR signaling (Example 6)", "format": "cell-based", "experimental": "(§2) Gastric cancer NCI-N87 and breast carcinoma KPL4 cell lines were cultured in RPMI 1640 supplemented with 10 % FCS in a humidified incubator at 37° C. with 5% CO2. Cells were plated in 6-well plates at optimal density to allow linear proliferation for the duration of the assay. […] 7 h, 24 h or 48 h after dosing, whole-cell extracts were obtained by lysis in 50 mM Tris-HC1 pH 7.5, 2% SDS containing protease and phosphatase inhibitors. Lysates were boiled for 5 minutes at 95° C. Protein concentration was measured using a Nanodrop at […] and 50 µg of lysate were loaded in 4-12% Bis Tris gels. Proteins were transferred using iblot2. Primary antibodies (see Table 7) were incubated overnight at 4° C. in 3% milk TBS-tween 0.05% and HRP-conjugated secondary antibodies for 1h at room temperature. Blots were imaged using a G-box."}, "[2]": {"test_system": "ATR pathway in KPL4 (breast carcinoma) cells", "assay": "Antibody blots of ATR signaling (Example 6)", "format": "cell-based", "experimental": "as §2"}, "NCI-N87": {"test_system": "NCI-N87", "assay": "Nuclear cell count growth inhibition, 4 to 8 days (Example 4)", "format": "cell-based", "conditions": "Homo sapiens; NCI-N87, Gastric, HER2 High; monotherapy", "experimental": "(§3) Cells grown in their respective conditions were plated in 96-well plates at optimal density to allow linear proliferation for the duration of the assay (4 to 8 days; duration of treatment is dependent on the growth rate of each cell line). Immediately after plating, the cells were dosed with the indicated compounds for a total volume of 200 µL/well and placed in the incubator. Combinations were conducted as a 6 × 8 concentration response matrix for each combination. At the endpoint, the cells were fixed in 2% PFA for 20 minutes at room temperature. In order to obtain the number of cells at the start of treatment, one additional plate was used for each experiment and fixed after cells attached. The cells were then permeabilised in 0.5% Triton-X100 in PBS for 10 minutes. After a PBS wash, the cells were blocked in 5% FBS in PBS 1h at RT and incubated with primary antibodies in 5% FBS + 0.05% triton overnight at 4° C. After 3 washes in PBS cells were incubated with secondary antibodies in 5% FBS + 0.05% triton with Hoechst33258 for 1h at room temperature. After 3 washes in PBS, the cells were scanned with a Cellinsight instrument with a 10× objective and 9 fields/well. Images were analysed using Columbus for cell count based on nuclear Hoechst staining and nuclear intensity of other biomarkers investigated. […]"}, "SK-OV-3": {"test_system": "SK-OV-3", "assay": "Nuclear cell count growth inhibition / synergy, 4 to 8 days (Example 4)", "format": "cell-based", "conditions": "Homo sapiens; SK-OV-3, Ovarian, HER2 Moderate; monotherapy", "experimental": "as §3"}, "JIMT-1": {"test_system": "JIMT-1", "assay": "Nuclear cell count growth inhibition / synergy, 4 to 8 days (Example 4)", "format": "cell-based", "conditions": "Homo sapiens; JIMT-1, Breast, HER2 Expressed; monotherapy", "experimental": "as §3"}, "[3]": {"test_system": "NCI-N87 tumors implanted subcutaneously", "assay": "NCI-N87 xenograft tumor growth inhibition (Example 5)", "format": "in vivo, Female Nude mice", "conditions": "AZD6738 25 mg/kg PO BID (14 d-on/14-d off); day 40 post treatment"}, "[4]": {"test_system": "DU145-SLFN11 KO (CRISPR-Cas9 gene knockout of SLFN11)", "assay": "Nuclear cell count growth inhibition, 4 to 8 days (Example 4)", "format": "cell-based", "conditions": "Prostate, HER2 Low, monotherapy", "experimental": "as §3"}, "[5]": {"conditions": "AZD6738 at 1 µM in combination with DS-8201 or exatecan mesylate"}, "[6]": {"conditions": "DS-8201 at 30 µg/mL or exatecan mesylate alone, 7 h, 24 h or 48 h"}}, "note": "Where a name gives a salt, the structure may show the parent alone."}
{"smiles": "C[C@@H]1COCCN1c1cc(C2([S@](C)(=N)=O)CC2)nc(-c2ccnc3[nH]ccc23)n1", "note": "[AZD6738, 4-{4-[(3R)-3-methylmorpholin-4-yl]-6-[1-((R)-S-methylsulfonimidoyl)cyclopropyl]pyrimidin-2-yl}-1H-pyrrolo[2,3-b]pyridine]", "values": [{"measurement": "GI50", "setting": "MDA-MB-468; Homo sapiens, MDA-MB-468, Breast, HER2 Low, monotherapy", "value": 2.07, "unit": "µM"}, {"measurement": "GI50", "setting": "KPL4; KPL4, Breast, HER2 High, monotherapy", "value": "> 3", "unit": "µM"}, {"measurement": "Activation of pATR and pChk1 and cell cycle arrest induced by DS-8201 or exatecan mesylate", "setting": "[1]; AZD6738 at 1 µM in combination", "value": "inhibited the activation of pATR and pChk1 and cell cycle arrest"}, {"measurement": "Cell death (cCasp3)", "setting": "[1]; [5]", "value": "increased cell death"}, {"measurement": "DNA damage (pKap1, gH2AX)", "setting": "[1]; [5]", "value": "exacerbating the DNA damage"}, {"measurement": "Activation of pATR and pChk1 and cell cycle arrest induced by DS-8201 or exatecan mesylate", "setting": "[2]; AZD6738 at 1 µM in combination", "value": "inhibited the activation of pATR and pChk1 and cell cycle arrest"}, {"measurement": "Cell death (cCasp3)", "setting": "[2]; [5]", "value": "increased cell death"}, {"measurement": "DNA damage (pKap1, gH2AX)", "setting": "[2]; [5]", "value": "exacerbating the DNA damage"}, {"measurement": "GI50", "setting": "NCI-N87", "value": 0.436, "unit": "µM"}, {"measurement": "GI50", "setting": "SK-OV-3", "value": 1.01, "unit": "µM"}, {"measurement": "GI50", "setting": "JIMT-1", "value": 0.788, "unit": "µM"}, {"measurement": "Best response %TGI/regression (maximum TGI)", "setting": "[3]", "value": 62, "unit": "%"}]}
{"smiles": "CC[C@@]1(O)C(=O)OCc2c1cc1n(c2=O)Cc2c-1nc1cc(F)c(C)c3c1c2[C@@H](N)CC3", "note": "[Exatecan mesylate, (1S,9S)-1-amino-9-ethyl-5-fluoro-1,2,3,9,12,15-hexahydro-9-hydroxy-4-methyl-10H,13H-benzo[de]pyrano[3′,4′:6,7]indolizino[1,2-b]quinolin-10,13-dione, reference compound]", "values": [{"measurement": "Combination activity with AZD6738 (in words)", "setting": "MDA-MB-468; HER2-negative MDA-MB-468, in combination with AZD6738", "value": "still showed combination activity"}, {"measurement": "Biomarkers of ATM (KAP1 pSer824) activation and DNA strand breaks (γH2AX)", "setting": "KPL4; KPL4, single agent", "value": "induced in a concentration dependent manner"}, {"measurement": "Combination activity with AZD6738 (in words)", "setting": "KPL4; high-HER2 KPL4, in combination with AZD6738, clinically relevant concentrations", "value": "synergistic activity and cell death"}, {"measurement": "ATR pathway (pATR-T1989, pChk1-S345) and cell cycle arrest (pCdc2-Y15)", "setting": "[1]; [6]", "value": "induced activation of the ATR pathway"}, {"measurement": "ATR pathway (pATR-T1989, pChk1-S345) and cell cycle arrest (pCdc2-Y15)", "setting": "[2]; [6]", "value": "induced activation of the ATR pathway"}, {"measurement": "GI50", "setting": "[4]", "value": 0.00045, "unit": "µM"}]}
